Here are results for five compounds from ChEMBL document CHEMBL5614430, “Discovery, synthesis and SAR of 2-acyl-1-biarylmethyl pyrazolidines, dual orexin receptor antagonists designed as fast and short-acting sleeping drugs” (Bioorg Med Chem, 2024).

The nature of one data set: in vitro. To be noted: dog, MDCK-MDR1, Papp.
The nature of a further data set: physchem. Conditions: buffer, pH 7.4.
Data set [1] can be described thus: in vivo. To be noted: Beagle, dog, po, 10 mg/kg.
The nature of data set [2]: in vivo. Conditions: Beagle, dog, iv, 1 mg/kg.
Data set [3] in a line: in vivo. Conditions: Beagle, dog, po, 10 mg/kg. The source holds these as a separate data set.
A short description of data set [4]: in vivo. To be noted: Beagle, dog, po, 10 mg/kg. The source holds these as a separate data set.
The nature of data set [5]: in vivo. To be noted: Beagle, dog, iv, 1 mg/kg. This is another data set of the same source.
The nature of data set [6]: in vivo. Conditions: Beagle, dog, po, 10 mg/kg. The source holds these as a separate data set.

For `COc1cc(CN2[C@H]3c4ccccc4OC[C@H]3CN2C(=O)C2CCCCC2)cc(OC)c1`, the apparent permeability from apical to basolateral (Papp A→B) – broadly, the apparent permeability from the apical to the basolateral side of a cell layer – in “in vitro” is 17 ×10⁻⁶ cm/s. In addition, the pH-dependent lipophilicity (logD) (commonly lipophilicity at a set pH, counting ionised and neutral species) in “physchem” came out at 3.8.
On to `Cc1ccc(-n2nccn2)c(C(=O)N2CCCN2Cc2ccn(-c3ccccc3)n2)c1`, for which the AUC (commonly the area under the concentration-time curve, a measure of exposure) in the data set “in vivo [1]” is 1040 ng·h/mL. In the data set “in vivo [2]”, the Vd (in general, a proportionality between amount in the body and measured concentration, not a real space) turned out to be 0.8 L/kg. Moreover, in “in vivo [3]”, the time of peak concentration (Tmax) (in general, the time from dosing to the highest level) stood at 3.55 h. For the same compound, the maximum concentration (Cmax) (in general, the peak of the concentration-time curve) in the data set “in vivo [4]” is 287 ng/mL. Besides, the clearance (usually a measure of how efficiently the substance is removed, as volume per time) in “in vivo [5]” worked out at 17 mL/min/kg. In addition, in “in vivo [6]”, the bioavailability (usually dose-corrected exposure relative to a reference, in per cent) was found to be 10%.
Turning to `O=C(C1CCCCC1)N1C[C@@H]2COc3ccccc3[C@@H]2N1Cc1cccc(-c2ncon2)c1`, the logD in “physchem” is above 4.1.
On to `Cn1ccc(C(=O)N2C[C@@H]3COc4cc(F)ccc4[C@@H]3N2Cc2cccc(-c3ncccn3)c2)n1` (racemic), for which the Papp A→B in “in vitro” is 0.78 ×10⁻⁶ cm/s. Also, in the data set “physchem”, the pH-dependent lipophilicity (logD) is 2.8.
The corresponding values for `Cn1ccc(C(=O)N2C[C@@H]3CCc4cc(F)ccc4[C@@H]3N2Cc2cccc(-c3ncccn3)c2)n1` (racemic) are 9.3 ×10⁻⁶ cm/s and 3.3.
